The values below come from patent US11878965B2, “Inhibitors of peptidylarginine deiminases” (Gilead Sciences, Inc., priority 2020, dated 2024).

The target of the test is human PAD4 (Homo sapiens (Human), UniProt Q9UM07). The experiment in a line: In Vitro PAD4 BAEE Biochemical Assay. Conditions: geometric mean of multiple experiments. In a few lines:
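Recombinant human PAD4 (His-SUMO tag removed, E. coli-expressed), 5 nM, preincubated with compound and 2 mM CaCl2 30 min at 25 °C in MOPS pH 7.6 with DTT; 3 mM BAEE added for 2 h at 25 °C, EDTA stop. Released ammonia detected by o-phthalaldehyde/DTT fluorescence (ex 405, em 535 nm).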

Setting [1] is: human PAD4, BAEE substrate, 5 nM PAD4, 2 mM calcium chloride, 3 mM BAEE.
[2] abbreviates: recombinant PAD4 5 nM, 2 mM calcium chloride, 3 mM BAEE substrate.

Structures are written as SMILES.

Sequence of human PAD4 (Q9UM07 2-663): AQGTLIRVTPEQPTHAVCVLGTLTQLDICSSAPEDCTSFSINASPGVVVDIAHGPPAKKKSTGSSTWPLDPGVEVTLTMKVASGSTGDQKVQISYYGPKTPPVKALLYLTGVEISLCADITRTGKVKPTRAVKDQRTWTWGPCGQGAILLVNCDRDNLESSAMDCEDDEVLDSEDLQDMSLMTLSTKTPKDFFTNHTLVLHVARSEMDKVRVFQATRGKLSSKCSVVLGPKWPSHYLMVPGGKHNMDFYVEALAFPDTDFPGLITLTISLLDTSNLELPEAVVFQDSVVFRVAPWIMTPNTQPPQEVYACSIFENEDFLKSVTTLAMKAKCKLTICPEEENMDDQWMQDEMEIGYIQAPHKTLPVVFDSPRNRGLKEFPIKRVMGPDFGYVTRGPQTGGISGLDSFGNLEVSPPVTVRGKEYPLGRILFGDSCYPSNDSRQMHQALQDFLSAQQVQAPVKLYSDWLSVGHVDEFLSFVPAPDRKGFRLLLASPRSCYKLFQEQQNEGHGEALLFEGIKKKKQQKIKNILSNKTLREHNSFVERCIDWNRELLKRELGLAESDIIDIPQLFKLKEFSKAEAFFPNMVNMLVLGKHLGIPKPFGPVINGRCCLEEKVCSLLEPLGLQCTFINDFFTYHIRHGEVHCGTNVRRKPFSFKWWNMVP

For the compound `COc1cc(C(=O)N2C[C@H](N)CCN2C)cc2nc(-c3cc4ccc([C@@H](C)NC(=O)C56CC(C5)C6)nc4n3CC3CC3)n(C)c12` [Example 185, N-((R)-1-(2-(5-((R)-5-amino-2-methylhexahydropyridazine-1-carbonyl)-7-methoxy-1-methyl-1H-benzo[d]imidazol-2-yl)-1-(cyclopropylmethyl)-1H-pyrrolo[2,3-b]pyridin-6-yl)ethyl)bicyclo[1.1.1]pentane-1-carboxamide], the IC50 (commonly the concentration that inhibits the measured activity by half) under setting [1] was 82.1 nM.
Consider `CCc1nc(C)c(-c2ncccc2-c2ccc3cc(-c4nc5cc(C(=O)N6CCC[C@@H](N)C6)cc(OC)c5n4C)n(CC4CC4)c3n2)s1` [Example 271, (R)-(3-aminopiperidin-1-yl)(2-(1-(cyclopropylmethyl)-6-(2-(2-ethyl-4-methylthiazol-5-yl)pyridin-3-yl)-1H-pyrrolo[2,3-b]pyridin-2-yl)-7-methoxy-1-methyl-1H-benzo[d]imidazol-5-yl)methanone], for which the concentration for half-maximal inhibition (IC50) under setting [1] turned out to be 134 nM.
`COc1cc(C(=O)N2C[C@H](N)[C@@H]3CC[C@H]2C3)cc2nc(-c3cc4ccc([C@@H](C)NC(=O)c5cnc(C(F)F)nc5)nc4n3CC3CC3)n(C)c12` [Example 315, N-((R)-1-(2-(5-((1S,4R,5R)-4-amino-2-azabicyclo[3.2.1]octane-2-carbonyl)-7-methoxy-1-methyl-1H-benzo[d]imidazol-2-yl)-1-(cyclopropylmethyl)-1H-pyrrolo[2,3-b]pyridin-6-yl)ethyl)-2-(difluoromethyl)pyrimidine-5-carboxamide]: the IC50 under setting [2] amounted to 81.3 nM.
`CCN(c1ccc2cc(-c3nc4cc(C(=O)N5CC(N)CCC5C)cc(OC)c4n3C)n(CC3CC3)c2n1)S(C)(=O)=O` (stereo not shown) [Example 29, N-(2-(5-(5-amino-2-methylpiperidine-1-carbonyl)-7-methoxy-1-methyl-1H-benzo[d]imidazol-2-yl)-1-(cyclopropylmethyl)-1H-pyrrolo [2,3-b]pyridin-6-yl)-N-ethylmethanesulfonamide]: the half-maximal inhibitory concentration (IC50) under setting [1] was found to be 173 nM.
On the same count and under the same terms, next, `COc1cc(C(=O)N2C[C@H](N)CCN2C)cc2nc(-c3cc4ccc([C@@H](C)NC(=O)c5cc(F)cc(F)c5)nc4n3CC3CC3)n(C)c12` [Example 156, N-((R)-1-(2-(5-((R)-5-amino-2-methylhexahydropyridazine-1-carbonyl)-7-methoxy-1-methyl-1H-benzo[d]imidazol-2-yl)-1-(cyclopropylmethyl)-1H-pyrrolo[2,3-b]pyridin-6-yl)ethyl)-3,5-difluorobenzamide]: 166 nM; `C[C@@H](NC(=O)N(C)C)c1ccc2cc(-c3nc4cc(C(=O)N[C@H]5CNCC[C@@H]5F)c(F)cc4n3C)n(CC3CC3)c2n1` [Example 239, 2-(1-(cyclopropylmethyl)-6-((R)-1-(3,3-dimethylureido)ethyl)-1H-pyrrolo[2,3-b]pyridin-2-yl)-6-fluoro-N-((3S,4S)-4-fluoropiperidin-3-yl)-1-methyl-1H-benzo[d]imidazole-5-carboxamide]: 166 nM; `COc1cc(C(=O)N2CCCC3(CCN3)C2)cc2nc(-c3cc4ccc(N(C(F)F)S(C)(=O)=O)nc4n3CC3CC3)n(C)c12` (stereo not shown) [Example 75, N-(1-(cyclopropylmethyl)-2-(7-methoxy-1-methyl-5-(1,6-diazaspiro[3.5]nonane-6-carbonyl)-1H-benzo[d]imidazol-2-yl)-1H-pyrrolo[2,3-b]pyridin-6-yl)-N-(difluoromethyl) methanesulfonamide]: 50000 nM.
In the case of `COc1cc(C(=O)N2[C@H]3CC[C@@H]2[C@H](N)C3)cc2nc(-c3cc4ccc([C@H]5CCCN5C(=O)C(C)(C)C)nc4n3CC3CC3)n(C)c12` [Example 246, 1-((R)-2-(2-(5-((1R,2R,4S)-2-amino-7-azabicyclo[2.2.1]heptane-7-carbonyl)-7-methoxy-1-methyl-1H-benzo[d]imidazol-2-yl)-1-(cyclopropylmethyl)-1H-pyrrolo[2,3-b]pyridin-6-yl)pyrrolidin-1-yl)-2,2-dimethylpropan-1-one], the half-maximal inhibitory concentration (IC50) under setting [1] was found to be 48.4 nM.
For the compound `COc1cc(C(=O)N2C[C@H](N)[C@@H]3CC[C@H]2C3)cc2nc(-c3cc4ccc([C@@H](C)NC(=O)C(C)(C)C(F)F)nc4n3CC3CC3)n(C)c12` [Example 323, N-((R)-1-(2-(5-((1S,4R,5R)-4-amino-2-azabicyclo[3.2.1]octane-2-carbonyl)-7-methoxy-1-methyl-1H-benzo[d]imidazol-2-yl)-1-(cyclopropylmethyl)-1H-pyrrolo[2,3-b]pyridin-6-yl)ethyl)-3,3-difluoro-2,2-dimethylpropanamide], the IC50 under setting [2] worked out at 84.6 nM.
As for `COc1cc(C(=O)N2C[C@H](N)[C@@H]3CC[C@H]2C3)cc2nc(-c3cc4ccc([C@@H](C)NC(=O)c5ccc(C(F)(F)F)nc5)nc4n3CC3CC3)n(C)c12` [Example 313, N-((R)-1-(2-(5-((1S,4R,5R)-4-amino-2-azabicyclo[3.2.1]octane-2-carbonyl)-7-methoxy-1-methyl-1H-benzo[d]imidazol-2-yl)-1-(cyclopropylmethyl)-1H-pyrrolo[2,3-b]pyridin-6-yl)ethyl)-6-(trifluoromethyl)nicotinamide], the IC50 under setting [2] was 113 nM.
As to `COc1cc(C(=O)N2C[C@H](N)[C@@H]3CC[C@H]2C3)cc2nc(-c3cc4ccc([C@@H](C)NC(=O)c5ccc(C(F)F)nc5)nc4n3CC3CC3)n(C)c12` [Example 297, N-((R)-1-(2-(5-((1S,4R,5R)-4-amino-2-azabicyclo[3.2.1]octane-2-carbonyl)-7-methoxy-1-methyl-1H-benzo[d]imidazol-2-yl)-1-(cyclopropylmethyl)-1H-pyrrolo[2,3-b]pyridin-6-yl)ethyl)-6-(difluoromethyl)nicotinamide], under setting [2], the IC50 stood at 65.9 nM.
Take `COc1cc(C(=O)N2CCC[C@@H](N)[C@H]2C)cc2nc(-c3cc4ccc(N(C)S(C)(=O)=O)nc4n3C3CC3)n(CC3CC3)c12` [Example 49, N-(2-(5-((2R,3R)-3-amino-2-methylpiperidine-1-carbonyl)-1-(cyclopropylmethyl)-7-methoxy-1H-benzo[d]imidazol-2-yl)-1-cyclopropyl-1H-pyrrolo[2,3-b]pyridin-6-yl)-N-methylmethanesulfonamide]: the IC50 under setting [1] came out at 487 nM.
Turning to `COc1cc(C(=O)N2C[C@H](N)CCN2C)cc2nc(-c3cc4ccc([C@@H](C)NC(=O)c5nc(C)ccc5C)nc4n3CC3CC3)n(C)c12` [Example 176, N-((R)-1-(2-(5-((R)-5-amino-2-methylhexahydropyridazine-1-carbonyl)-7-methoxy-1-methyl-1H-benzo[d]imidazol-2-yl)-1-(cyclopropylmethyl)-1H-pyrrolo[2,3-b]pyridin-6-yl)ethyl)-3,6-dimethylpicolinamide], under setting [1], the concentration for half-maximal inhibition (IC50) amounted to 231 nM.
Turning to `COc1cc(C(=O)N2[C@@H]3CC[C@@H](N)[C@H]2CC3)cc2nc(-c3cc4ccc(N(C(C)C)S(C)(=O)=O)nc4n3CC3CC3)n(C)c12` [Example 85, N-(2-(5-((1R,2R,5R)-2-amino-8-azabicyclo[3.2.1]octane-8-carbonyl)-7-methoxy-1-methyl-1H-benzo[d]imidazol-2-yl)-1-(cyclopropylmethyl)-1H-pyrrolo [2,3-b]pyridin-6-yl)-N-isopropyl-methanesulfonamide], the IC50 under setting [1] is 69.8 nM.
The same measure, in the same setting: next, `COc1cc(C(=O)N2[C@H]3CC[C@@H]2[C@H](N)C3)cc2nc(-c3cc4ccc([C@@H](C)NC(=O)c5cnn(C(F)F)c5)nc4n3CC3CC3)n(C)c12` [Example 205, N-((R)-1-(2-(5-((1R,2R,4S)-2-amino-7-azabicyclo[2.2.1]heptane-7-carbonyl)-7-methoxy-1-methyl-1H-benzo[d]imidazol-2-yl)-1-(cyclopropylmethyl)-1H-pyrrolo[2,3-b]pyridin-6-yl)ethyl)-1-(difluoromethyl)-1H-pyrazole-4-carboxamide]: 79.7 nM; `COc1cc(C(=O)N2[C@H]3CC[C@@H]2[C@H](N)C3)cc2nc(-c3cc4ccc([C@@H](C)NC(=O)C5(C(F)(F)F)CC5)nc4n3CC3CC3)n(C)c12` [Example 207, N-((R)-1-(2-(5-((1R,2R,4S)-2-amino-7-azabicyclo[2.2.1]heptane-7-carbonyl)-7-methoxy-1-methyl-1H-benzo[d]imidazol-2-yl)-1-(cyclopropylmethyl)-1H-pyrrolo[2,3-b]pyridin-6-yl)ethyl)-1-(trifluoromethyl)cyclopropane-1-carboxamide]: 240 nM.
Regarding `COc1cc(C(=O)N2C[C@H](N)[C@@H]3CC[C@H]2C3)cc2nc(-c3cc4ccc([C@@H](C)NC(=O)C(C)(C)C)nc4n3CC(C)(C)O)n(C)c12` [Example 330, N-((R)-1-(2-(5-((1S,4R,5R)-4-amino-2-azabicyclo[3.2.1]octane-2-carbonyl)-7-methoxy-1-methyl-1H-benzo[d]imidazol-2-yl)-1-(2-hydroxy-2-methylpropyl)-1H-pyrrolo[2,3-b]pyridin-6-yl)ethyl)pivalamide], the IC50 under setting [2] came to 253 nM.
As to `CS(=O)(=O)N(c1ccc2cc(-c3nc4cc(C(=O)N5CCC[C@@H](N)C5)ccc4n3C3CC3)n(CC3CC3)c2n1)C(F)F` [Example 54, (R)-N-(2-(5-(3-aminopiperidine-1-carbonyl)-1-cyclopropyl-1H-benzo[d]imidazol-2-yl)-1-(cyclopropylmethyl)-1H-pyrrolo[2,3-b]pyridin-6-yl)-N-(difluoromethyl) methanesulfonamide], the IC50 under setting [1] stood at 37.4 nM.
Still for that read-out and setting: as for `COc1cc(C(=O)N2CCC[C@@H](N)C2)cc2nc(-c3cc4ccc(NC(C)(C)C)nc4n3CC3CC3)n(C)c12` [Example 278, (R)-(3-aminopiperidin-1-yl)(2-(6-(tert-butylamino)-1-(cyclopropylmethyl)-1H-pyrrolo[2,3-b]pyridin-2-yl)-7-methoxy-1-methyl-1H-benzo[d]imidazol-5-yl)methanone], the figure is 9340 nM.
